Patent publication US11590129B2, “Combination therapy with an antitumor alkaloid” (PHARMA MAR, S.A., priority 2010, dated 2023)
Read-outs that look alike come from different tables or passages of the source.

Experiments:
[1] = test system: A549 human lung carcinoma cell line; test: MTT cytotoxicity assay in A549 cells: IC50 of single agents and combinations with PM01183; assay type: cell-based; conditions: Homo sapiens
Description: (§1) Additional serial dilutions were prepared in serum-free culture medium to achieve a final 4× concentration. Aliquots of 50 μL of each diluted compound were added per well.
A549 was the human lung carcinoma cell line selected for this assay.
(§2) a. […] Briefly, cells were harvested and seeded in 96 well microtiter plates at a density of 5,000 cells in 150 μL of culture medium and incubated for 24 hours in drug-free medium before treatment with vehicle alone or test compounds for 72 h.
(§3) The cytotoxic effect was measured by the MTT reduction assay, in which 3-(4,5-Dimethylthiazol-2-yl)-2,5-diphenyltetrazolium bromide, a tetrazole, which is reduced to purple formazan in the mitochondria of living cells, was used. MTT (50 μL of 1 mg/mL stock solution) was added to the wells and incubated for 8 hours at 37° C. until formazan crystals were formed. After gently removing the culture medium, DMSO was added to dissolve the insoluble purple formazan product into a colored solution. […] Results were expressed as percentage of control cell growth.
(§4) b. In a second set of assays, A549 human tumor cells were incubated with PM01183 in combination with each of the agents mentioned above.
(§5) As a visual aid, response values were plotted on a scatter plot with dose ratios given on the x-axis and % response values on the y-axis. […] In cases where response values at the two endpoints were approximately equivalent, points lying above or below this predicted line of additivity could be interpreted as representing antagonistic or synergistic drug interaction, respectively.

[2] = test system: HT-29 human colon adenocarcinoma cell line; test: cells; conditions: Homo sapiens, HT-29, 72 h
Description: as §2, §3, §4, §5, §1
HT-29 was the human colon adenocarcinoma cell line selected for this assay.

[3] = test system: U87-MG human glioblastoma cell line; test: cells; conditions: Homo sapiens, U-87 MG, 72 h
Description: as §2, §3, §4, §5, §1
U87-MG was the human glioblastoma cell line selected for this assay.

[4] = test system: PC-3 human prostate cancer cell line; test: cells; conditions: Homo sapiens, PC-3, 72 h
Description: as §2, §3, §4, §5, §1
PC-3 was the human prostate adenocarcinome cell line selected for this assay.

[5] = test system: A673 human rhabdomyosarcoma cell line; test: cells; conditions: Homo sapiens, A673, 72 h
Description: as §2, §3, §4, §5, §1
A673 was the human rhabdomyosarcoma cell line selected for this assay.

[6] = test system: IGROV-1 human ovarian adenocarcinoma cell line; test: cells; conditions: Homo sapiens, IGROV-1, 72 h
Description: as §2, §3, §4, §5, §1
IGROV-1 was the human ovarian adenocarcinoma cell line selected for this assay.

[7] = test system: MDA-MB-231 human breast adenocarcinoma cell line; test: cells; conditions: Homo sapiens, MDA-MB-231, 72 h
Description: as §2, §3, §4, §5, §1

[8] = test system: HGC-27 human gastric carcinoma cell line; test: cells; conditions: Homo sapiens, HGC-27, 72 h
Description: as §2, §3, §4, §5, §1
HGC-27 was the human gastric carcinoma cell line selected for this assay.

[9] = test system: SK-MEL-2 human melanoma cell line; test: cells; conditions: Homo sapiens, SK-MEL-2, 72 h
Description: as §2, §3, §4, §5, §1
SK-MEL-2 was the human melanoma cell line selected for this assay.

[10] = test system: PANC-1 human pancreatic carcinoma cell line; test: cells; conditions: Homo sapiens, PANC-1, 72 h
Description: as §2, §3, §4, §5, §1
PANC-1 was the human pancreatic carcinoma cell line selected for this assay.

[11] = test system: HepG2 human hepatocellular liver carcinoma cell line; test: MTT cytotoxicity assay in HepG2 cells: IC50 of single agents and combinations with PM01183; assay type: cell-based; conditions: Homo sapiens, HepG2, 72 h
Description: as §2, §3, §4, §5, §1
HepG2 was the human hepatocellular liver carcinoma cell line selected for this assay.

[12] = test system: RXF-393 human kidney carcinoma cell line; test: cells; conditions: Homo sapiens, RXF 393, 72 h
Description: as §2, §3, §4, §5, §1

Row | SMILES | IC50 ([1]; A549, 72 hours drug exposure, MTT, read-out: IC50) [µM] | IC50 [2] [µM] | IC50 [3] [µM] | IC50 [4] [µM] | IC50 [5] [µM] | IC50 [6] [µM] | IC50 [7] [µM] | IC50 [8] [µM] | IC50 [9] [µM] | IC50 [10] [µM] | IC50 ([1]; A549, 72 h) [µM] | IC50 [11] [µM] | IC50 [12] [µM]
1 | CO[C@H]1C[C@@H]2CC[C@@H](C)[C@@](O)(O2)C(=O)C(=O)N2CCCC[C@H]2C(=O)O[C@H]([C@H](C)C[C@@H]2CC[C@@H](OC(=O)C(C)(CO)CO)[C@H](OC)C2)CC(=O)[C@H](C)/C=C(\C)[C@@H](O)[C@@H](OC)C(=O)[C@H](C)C[C@H](C)/C=C/C=C/C=C/1C [Temsirolimus, temsirolimus] | 3.29 | 3.5 | 3.5 | 0.5 | 1 | 0.127 | 12 | 0.15 | 50 | 10 |  |  | 
2 | COc1cc([C@@H]2c3cc4c(cc3[C@@H](O[C@@H]3O[C@@H]5CO[C@@H](C)O[C@H]5[C@H](O)[C@H]3O)[C@H]3COC(=O)[C@H]23)OCO4)cc(OC)c1O [Etoposide, etoposide] |  | 5.44 | 18.5 | 48 | 1.55 | 3.06 | 4.8 | 2.9 | 2.89 | 10 | 0.782 | 10.4 | 20
3 | CC[C@@]1(O)C(=O)OCc2c1cc1n(c2=O)Cc2cc3c(CN(C)C)c(O)ccc3nc2-1 [Topotecan, topotecan] |  | 0.328 | 0.75 | 0.633 | 0.024 | 0.3 | 0.166 | 0.808 | 0.437 | 4.37 | 0.8 | 1 | 0.393
